Results from patent EP2371816A1, “Aminocyclohexenone, their preparation and use as medicament against oxidative stress” (ABIOGEN PHARMA S.p.A., priority 2010, dated 2011).

Legend:
C6 cells (rat glioma) = test: In vitro inhibition of CHP-induced oxidative stress (DCF fluorescence) in C6 cells; type: cell-based; conditions: 500 µM CHP, compound 4, 20, 100 and 500 µM, 30 minutes at 37 °C, range given for both cell lines together
Description: (§1) The method used was essentially the one reported by Rüweler M. et al. ("Inhibition of peroxide-induced radical generation by plant polyphenols in C6 astroglioma cells" (2008) Toxicol in vitro 22, 1377-81), with a few minor modifications.
(§2) The cells were seeded in phenol-red free DMEM (Sigma Aldrich) into 96-well plates with 5% FBS and 20 mM HEPES at a density of 40,000 cells/well. After 48 hours, the medium was substituted by HBSS (Hanks' Balanced Salt Solution, Sigma) containing 10 µM of dihydro-2',7'-dichlorofluorescein diacetate (H2DCF-DA, Sigma Aldrich) and incubated in darkness for 30 minutes at 37 °C, in order to load the cells with fluorescent dye. H2DCF-DA was hydrolyzed enzymatically by the intracellular esterases to form non-fluorescent H2DCF, which was then rapidly oxidized to form 2',7'-dichlorofluorescein (DCF) being highly fluorescent in the presence of reactive species (RS). The intensity of DCF fluorescence is directly proportional to the amount of RS formed.
(§3) After carrying out two washes, the cells were exposed to 500 µM of CHP and various concentrations (4, 20, 100 and 500 µM) of the compounds of the invention for 30 minutes at 37 °C. Fluorescence was then measured, after cell washing, by a microplate reader at an excitation wavelength of 485 nm and an emission wavelength of 535 nm.
(§4) Six wells per plate per concentration of test composition (compound + CHP) and per control (HBSS without CHP) were measured and 12 wells were used as reference for CHP-induced stress. In addition, each 96-well plate contained 6 wells that received the highest concentration of the tested compounds without CHP, to investigate whether the compounds of the invention alone were able to induce cellular radical formation.
(§5) When using this assay, it should be borne in mind that DCF fluorescence is a generalized indicator of oxidative stress rather than of any particular reactive species, i.e. it is not a direct assay for H2O2 or other reactive species (Halliwell B, Whiteman M. (2004) "Measuring reactive species and oxidative damage in vivo and in cell culture: how should you do it and what do the results mean?" Br. J. Pharmacol. 142 231-255). Therefore, when an increase in DCF fluorescence induced by exposure of cells to CHP was measured, as was undertaken in these assays, it was not possible to deduce which reactive species was responsible. Inhibition of CHP-induced fluorescence was evaluated by means of different concentrations of the compounds of the invention and comparative compounds such as Trolox and edaravone.

[1] = system: BAEC cells (bovine aortic endothelial); test: In vitro inhibition of CHP-induced oxidative stress (DCF fluorescence) in BAEC cells; type: cell-based; conditions: 500 µM CHP, compound 4, 20, 100 and 500 µM, 30 minutes at 37 °C, range given for both cell lines together
Description: as §1, §2, §3, §4, §5

[2] = TEAC method (Trolox Equivalent Antioxidant Capacity Assay); conditions: ratio of gradient to gradient of reference (trolox); 37 °C, 650 nm, pH 4.5
From the text: This assay is used to measure the total antioxidant activity of pure substances, biological fluids and plant compounds and is based on the reaction of antioxidants with the cation radical ABTS^˙+ (2,2'-azinobis(3-ethylbenzothiazolin-6-sulphonate)). This cation radical is metastable and has to be generated just before the experiment by reacting ABTS with hydrogen peroxide in the presence of HRP.
This radical can be reduced, with consequent loss of absorbance, by an antioxidant whose scavenging capacity can be measured spectrophotometrically at 650 nm. The test is carried out at 37 °C and the results are obtained from a comparison with Trolox (a synthetic antioxidant and hydrophilic analogue of vitamin E).
The ABTS solution S1 was prepared as follows: • 20 mg of ABTS were added to 50 mM of citric acid buffer (40 ml) at pH=4.5 and to the resulting solution there was added an aqueous solution of HRP (4.4 mg, 400 µl) and an aqueous solution of H2O2 (10 µl of a 30% solution diluted with 16.3 ml of water).
For each of the compounds (2), (6) and (7), as synthesized above, there was prepared a 600 µM solution in water, methanol or DMSO according to its solubility, as well as a Trolox solution as reference.
Each solution was diluted to produce 6 solutions each at a concentration between 25 µM and 300 µM. From each of the diluted and divided solutions, there were withdrawn 20 µl to which 200 µl of solution S1 were then added.
The decrease in absorbance of each solution thus obtained was monitored at 650 nm until a stable value was reached (about 90 minutes).
For each set of 6 solutions and for the reference trolox solution, the absorption was given in graph form as a function of the amount of compound (nmol) in the solution. The gradient of the straight line obtained by linear interpolation was determined according to the least squares method. The TEAC value of each compound of the invention is given in the table below and is expressed as the ratio between the gradient of the resulting straight line and the gradient of the reference (trolox) straight line.

[3] = system: cerebral oxidative stress induced in mice by doxorubicin; test: In vivo assay of cerebral oxidative stress induced in mice by doxorubicin
Description: The assay was carried out on compounds (1) and (3)-(6) and on edaravone (E) as comparative compound.
10 mice were used for each treatment group. For each compound 50 mg/kg were administered intraperitoneally (IP) for three consecutive days (day 0, 1 and 2); half the animals (5) also received IP 16.7 mg/kg of doxorubicin immediately after the first treatment (day 0). On the day after the last administration (day 3) the animals were killed by neck dislocation and the brains were removed, weighed and frozen in liquid nitrogen.
For the analyses of oxidative stress, 100 mg/ml of brain homogenate was prepared in Hebe buffer (pH 7.4 EDTA/HEPES^(**)) containing a mixture of enzyme inhibitors (Leupeptin, Pepstatin, Aprotinin, BHA). • ^(*) Hypotonic Extraction Buffer • ^(**) 4-2-hydroxyethyl-1-piperazinyl-ethanesulphonic acid
The evaluation parameters were: • BrW/BWi: ratio between final brain weight and initial body weight (day 0); • Prot. Hmg: total proteins in the homogenate (BCA method, i.e. bicinchoninic acid); • Prot. Ox: oxidized proteins in the Hmg by means of a colorimetric method using […] (DNPH); • GSH: reduced glutathione in the supernatant (sn) of the Hmg, obtained after precipitation with metaphosphoric acid (MPA), by means of a colorimetric method using […] (DTNB); • CAT: catalase in the Hmg by a colorimetric method using potassium dichromate; • SOD: superoxide dismutase by a colorimetric method using SOD Reagent (xanthine, EDTA, nitroblue tetrazole, Na2CO3, BSA, i.e. bovine serum albumin); • GST: glutathione S-transferase in the supernatant by a colorimetric method using chlorodinitrobenzene (CDNB) and GSH; and • GPx: glutathione peroxidase in the supernatant after addition of GSH and tert butyl hydroperoxide (t-BuOOH), heating and precipitation with MPA; followed by GSH method with DTNB.
All the parameters, with the exclusion of Brain/BWi and Prot. Hmg, were normalized for total Hmg proteins (Table 3). The D value standard deviations and the % incidence relative to V are given in italics.
The mean % effect, on all the parameters simultaneously, of the triple treatment in the healthy animals, as mean percentage variation relative to the vehicle (table 4). This value is useful as an approximate safety index of the oxidative state of the brain, i.e. the capacity of the compounds of the invention not to alter cerebral homeostasis in healthy animals.
The effect of the tested compounds on the "oxidized" animals was given as % inhibition relative to the percentage variation due to doxorubicin alone. The effect of the compounds on the oxidized animals can be expressed both as a function of the values of the vehicle (healthy, vehicle only) and as a function of the value of its own control (healthy, compound only): • Vehicle: percentage [(Compound+D)/V]x100/[(V+D)/V]x100 • Its own: percentage [(Compound+D)/Compound]x100/[(V+D)/V]x100

[4] = % variation relative to the vehicle, healthy animals, 50 mg/kg IP x3 days (D = doxorubicin alone)

Brain/BWi [3, 4] [%]	CAT/pr [3, 4] [%]	GPX/pr [3, 4] [%]	GSH/pr [3, 4] [%]	GST/pr [3, 4] [%]	Prot. Hmg [3, 4] [%]	Prot. Ox/pr [3, 4] [%]	SOD/pr [3, 4] [%]	Compound	Inhibition of CHP-induced fluorescence (C6 cells (rat glioma))	Inhibition of CHP-induced fluorescence [1]	TEAC [2]	overall inhibitory effect on the doxorubicin-induced oxidation ([3]; both with respect to the Vehicle and Its own)	Mean % variation relative to the vehicle ([3]; healthy animals, 50 mg/kg IP days 0, 1 and 2, mean over all parameters, approximate safety index (D = doxorubicin alone), 50 mg/kg) [%]
								Cc1c(C)c2c(c(C)c1O)CCC(C)(C(=O)O)O2 (stereo not drawn) [Trolox, reference compound]	10-50%	10-50%			
2.7	-5.0	-6.7	-5.5	-3.1	3.7	-2.3	-2.2	CC1=NN(c2ccccc2)C(=O)C1 [edaravone, reference compound]	10-50%	10-50%	0.9	about 75%	-2.7
